The values that follow come from US20110166121A1 (LG LIFE SCIENCES LTD., priority 2008, published 2011).

As usually defined, the Ki is the dissociation constant of the complex between target and ligand, obtained from inhibition or displacement. Low readings indicate higher affinity, high ones lower affinity. In general, IC50 refers to the concentration that gives 50% inhibition.

For experiment [1], the system named is Human platelet aggregation caused by ADP. The experiment can be described thus: Inhibition of ADP-induced platelet aggregation (Mimic-human PRP). It is filed as cell-based. The note with it: 20 μM ADP, human platelet concentrate diluted with PPP, absorption at 595 nm. The essentials: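 Human PRP diluted with PPP to 3–4×10^8 platelets/mL was preincubated 20 min at room temperature with compound (0.01–30 μM, DMSO), then stimulated with 20 μM ADP. Aggregation read as A595 increase at 3 min versus 0 and 20 μM ADP controls; Ki from sigmoidal non-linear regression.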

The target of the next experiment is T1, Human P2Y12 receptor (Homo sapiens, UniProt Q9H244).
T1 construct: expressed in transfected cells; host or cells: HEK cells
T1 sequence (Q9H244 whole entry): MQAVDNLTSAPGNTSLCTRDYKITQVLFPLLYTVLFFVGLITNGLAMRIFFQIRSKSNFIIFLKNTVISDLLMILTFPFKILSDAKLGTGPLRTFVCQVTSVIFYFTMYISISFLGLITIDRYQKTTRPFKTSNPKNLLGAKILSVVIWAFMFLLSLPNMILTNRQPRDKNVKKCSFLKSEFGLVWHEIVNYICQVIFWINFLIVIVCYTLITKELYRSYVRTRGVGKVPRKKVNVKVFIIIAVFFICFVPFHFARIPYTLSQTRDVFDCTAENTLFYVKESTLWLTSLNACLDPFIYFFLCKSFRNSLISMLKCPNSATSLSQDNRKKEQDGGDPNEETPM
The experiment can be described thus: Human P2Y12 receptor cell membrane binding assay with [3H] 2-Mes-ADP. The essentials: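 Membranes from HEK cells expressing human P2Y12 were incubated with compound and 1 nM [3H]2-MeS-ADP for 1 h at room temperature. Bound radioactivity was collected by GF/B filtration.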

The mark [2] stands for this setting: 1 nM [3H] 2-Mes-ADP, membranes of HEK cells expressing P2Y12 receptor, read-out: Binding activity (IC50).

Where two headings read alike, the source gives them in different places.

As to `CCCc1cc2c(N3CCn4c(nnc4C(F)(F)F)C3)nc(N3CC(O)C3)nc2s1` [Example 1-85, 1-[6-Propyl-4-(3-trifluoromethyl-5,6-dihydro-8H-[1,2,4]triazolo[4,3-a]pyrazin-7-yl)-thieno[2,3-d]pyrimidin-2-yl]-azetidin-3-ol], the Ki in experiment [1] turned out to be 14 nM. On Human P2Y12 receptor (setting [2]), the IC50 worked out at 96 nM.
With `CCCc1cc2c(N3CCn4c(nnc4C(F)(F)F)C3)nc(N3CC[C@H](C(N)=O)C3)nc2s1` [Example 1-86, (S)-1-[6-Propyl-4-(3-trifluoromethyl-5,6-dihydro-8H-[1,2,4]triazolo[4,3-a]pyrazin-7-yl)-thieno[2,3-d]pyrimidin-2-yl]-pyrrolidine-3-carboxylic acid amide], in experiment [1], the Ki was determined as 11 nM. Moreover, the IC50 on Human P2Y12 receptor (setting [2]) was 24 nM.
Turning to `CCCc1cc2c(N3CCn4c(nnc4C(F)(F)F)C3)nc(N3CC[C@H](C(=O)NC)C3)nc2s1` [Example 1-87, (S)-1-[6-Propyl-4-(3-trifluoromethyl-5,6-dihydro-8H-[1,2,4]triazolo[4,3-a]pyrazin-7-yl)-thieno[2,3-d]pyrimidin-2-yl]-pyrrolidine-3-carboxylic acid methylamide], the affinity in experiment [1], expressed as Ki, was 11 nM. Further, the IC50 on Human P2Y12 receptor (setting [2]) turned out to be 67 nM.
Molecule `CCCc1cc2c(N3CCn4c(nnc4C(F)(F)F)C3)nc(N3CC[C@H](C(=O)NO)C3)nc2s1` [Example 1-89, (S)-1-[6-Propyl-4-(3-trifluoromethyl-5,6-dihydro-8H-[1,2,4]triazolo[4,3-a]pyrazin-7-yl)-thieno[2,3-d]pyrimidin-2-yl]-pyrrolidine-3-carboxylic acid hydroxyamide] gave an inhibition constant Ki in experiment [1] of 12 nM. Besides, at Human P2Y12 receptor (setting [2]), the concentration for half-maximal inhibition (IC50) was found to be 55 nM.
In experiment [1], `CCCc1cc2c(N3CCn4c(nnc4C(F)(F)F)C3)nc(N3CC[C@H](C(=O)NCCO)C3)nc2s1` [Example 1-90, (S)-1-[6-Propyl-4-(3-trifluoromethyl-5,6-dihydro-8H-[1,2,4]triazolo[4,3-a]pyrazin-7-yl)-thieno[2,3-d]pyrimidin-2-yl]-pyrrolidine-3-carboxylic acid (2-hydroxy-ethyl)-amide] came in with a Ki of 50 nM. Further, the IC50 at Human P2Y12 receptor (setting [2]) amounted to 110 nM.
On to `CCCc1cc2c(N3CCn4c(nnc4C(F)(F)F)C3)nc(N3CC[C@H](C(=O)NCCN)C3)nc2s1` [Example 1-91, (S)-1-[6-Propyl-4-(3-trifluoromethyl-5,6-dihydro-8H-[1,2,4]triazolo[4,3-a]pyrazin-7-yl)-thieno[2,3-d]pyrimidin-2-yl]-pyrrolidine-3-carboxylic acid (2-amino-ethyl)-amide], for which affinity in experiment [1] was put at a Ki of 140 nM. Moreover, at Human P2Y12 receptor (setting [2]), the IC50 is 190 nM.
Molecule `CCCc1cc2c(N3CCn4c(nnc4C(F)(F)F)C3)nc(N3CC3C(=O)OC)nc2s1` (stereo not shown) [Example 1-96, 1-[6-Propyl-4-(3-trifluoromethyl-5,6-dihydro-8H-[1,2,4]triazolo[4,3-a]pyrazin-7-yl)-thieno[2,3-d]pyrimidin-2-yl]-aziridine-2-carboxylic acid methyl ester] came in with an inhibition constant Ki in experiment [1] of 21 nM. This molecule also came in with an IC50 on Human P2Y12 receptor of 630 nM.
Turning to `CCCc1cc2c(N3CCn4c(nnc4C(F)(F)F)C3)nc(N3CCC(N(C)C)C3)nc2s1` (stereo not shown) [Example 1-97, Dimethyl-{1-[6-propyl-4-(3-trifluoromethyl-5,6-dihydro-8H-[1,2,4]triazolo[4,3-a]pyrazin-7-yl)-thieno[2,3-d]pyrimidin-2-yl]-pyrrolidin-3-yl}-amine], in experiment [1], the inhibitory constant (Ki) was found to be 13 nM. Besides, the half-maximal inhibitory concentration (IC50) on Human P2Y12 receptor (setting [2]) stood at 140 nM.
On to `CCCc1cc2c(N3CCn4c(nnc4C(F)(F)F)C3)nc(NC3CCNC3)nc2s1` (stereo not shown) [Example 1-98, [6-Propyl-4-(3-trifluoromethyl-5,6-dihydro-8H-[1,2,4]triazolo[4,3-a]pyrazin-7-yl)-thieno[2,3-d]pyrimidin-2-yl]-pyrrolidin-3-yl-amine], for which the affinity in experiment [1], expressed as Ki, was 32 nM. The 50% inhibitory concentration (IC50) at Human P2Y12 receptor (setting [2]) worked out at 470 nM.
`CCCc1cc2c(N3CCn4c(nnc4C(F)(F)F)C3)nc(N3CC[C@H](NCCO)C3)nc2s1` [Example 1-99, 2-{(S)-1-[6-Propyl-4-(3-trifluoromethyl-5,6-dihydro-8H-[1,2,4]triazolo[4,3-a]pyrazin-7-yl)-thieno[2,3-d]pyrimidin-2-yl]-pyrrolidin-3-ylamino}-ethanol] had an inhibitory constant (Ki) in experiment [1] of 43 nM. Besides, at Human P2Y12 receptor (setting [2]), the IC50 is 130 nM.
`CCCc1cc2c(N3CCn4c(nnc4C(F)(F)F)C3)nc(N3CC[C@H](NC(=O)CC#N)C3)nc2s1` [Example 1-103, 2-Cyano-N-{(S)-1-[6-propyl-4-(3-trifluoromethyl-5,6-dihydro-8H-[1,2,4]triazolo[4,3-a]pyrazin-7-yl)-thieno[2,3-d]pyrimidin-2-yl]-pyrrolidin-3-yl}-acetamide]: the Ki in experiment [1] was found to be 6.6 nM. In addition, on Human P2Y12 receptor (setting [2]), the IC50 turned out to be 50 nM.
In the case of `CCCc1cc2c(N3CCn4c(nnc4C(F)(F)F)C3)nc(N3CC[C@H](NC(=O)CC(F)(F)F)C3)nc2s1` [Example 1-104, 3,3,3-Trifluoro-N-{(S)-1-[6-propyl-4-(3-trifluoromethyl-5,6-dihydro-8H-[1,2,4]triazolo[4,3-a]pyrazin-7-yl)-thieno[2,3-d]pyrimidin-2-yl]-pyrrolidin-3-yl}-propionamide], the Ki in experiment [1] worked out at 86 nM. For the same molecule, the half-inhibitory concentration (IC50) on Human P2Y12 receptor (setting [2]) was 80 nM.
The molecule `CCCc1cc2c(N3CCn4c(nnc4C(F)(F)F)C3)nc(N3CC[C@H](NC(=O)CCO)C3)nc2s1` [Example 1-109, 3-Hydroxy-N-{(S)-1-[6-propyl-4-(3-trifluoromethyl-5,6-dihydro-8H-[1,2,4]triazolo[4,3-a]pyrazin-7-yl)-thieno[2,3-d]pyrimidin-2-yl]-pyrrolidin-3-yl}-propionamide] came in with an inhibitory constant (Ki) in experiment [1] of 26 nM. Also, the IC50 on Human P2Y12 receptor (setting [2]) was found to be 80 nM.
In turn, `CCCc1cc2c(N3CCn4c(nnc4C(F)(F)F)C3)nc(N3CC[C@H](NC(=O)CCN)C3)nc2s1` [Example 1-110, 3-Amino-N-{(S)-1-[6-propyl-4-(3-trifluoromethyl-5,6-dihydro-8H-[1,2,4]triazolo[4,3-a]pyrazin-7-yl)-thieno[2,3-d]pyrimidin-2-yl]-pyrrolidin-3-yl}-propionamide] showed a Ki in experiment [1] of 60 nM. The IC50 at Human P2Y12 receptor (setting [2]) came to 670 nM.
Molecule `CCCc1cc2c(N3CCn4c(nnc4C(F)(F)F)C3)nc(N3CC[C@H](NC(=O)c4ccccn4)C3)nc2s1` [Example 1-111, Pyridine-2-carboxylic Acid {(S)-1-[6-propyl-4-(3-trifluoromethyl-5,6-dihydro-8H-[1,2,4]triazolo[4,3-a]pyrazin-7-yl)-thieno[2,3-d]pyrimidin-2-yl]-pyrrolidin-3-yl}-amide] returned an inhibitory constant (Ki) in experiment [1] of 590 nM. Besides, on Human P2Y12 receptor (setting [2]), the half-inhibitory concentration (IC50) was found to be 150 nM.
Molecule `CCCc1cc2c(N3CCn4c(nnc4C(F)(F)F)C3)nc(N3CC[C@H](NC(=O)c4ccco4)C3)nc2s1` [Example 1-112, Furan-2-carboxylic Acid {(S)-1-[6-propyl-4-(3-trifluoromethyl-5,6-dihydro-8H-[1,2,4]triazolo[4,3-a]pyrazin-7-yl)-thieno[2,3-d]pyrimidin-2-yl]-pyrrolidin-3-yl}-amide] displayed an inhibitory constant (Ki) in experiment [1] of 260 nM. Besides, the IC50 at Human P2Y12 receptor (setting [2]) stood at 50 nM.
As for `CCCc1cc2c(N3CCn4c(nnc4C(F)(F)F)C3)nc(N3CC[C@H](NS(C)(=O)=O)C3)nc2s1` [Example 1-113, N-{(S)-1-[6-Propyl-4-(3-trifluoromethyl-5,6-dihydro-8H-[1,2,4]triazolo[4,3-a]pyrazin-7-yl)-thieno[2,3-d]pyrimidin-2-yl]-pyrrolidin-3-yl}-methanesulfonamide], the Ki in experiment [1] is 36 nM. Moreover, the IC50 at Human P2Y12 receptor (setting [2]) amounted to 32 nM.
Regarding `CCCc1cc2c(N3CCn4c(nnc4C(F)(F)F)C3)nc(N3CC(=O)C(N)C3)nc2s1` (stereo not shown) [Example 1-115, 4-Amino-1-[6-propyl-4-(3-trifluoromethyl-5,6-dihydro-8H-[1,2,4]triazolo[4,3-a]pyrazin-7-yl)-thieno[2,3-d]pyrimidin-2-yl]-pyrrolidin-3-one], the Ki in experiment [1] was determined as 16 nM. The IC50 at Human P2Y12 receptor (setting [2]) was found to be 110 nM.
The molecule `CCCc1cc2c(N3CCn4c(nnc4C(F)(F)F)C3)nc(N3CC(=NO)C(N)C3)nc2s1` (stereo not shown) [Example 1-116, 4-Amino-1-[6-propyl-4-(3-trifluoromethyl-5,6-dihydro-8H-[1,2,4]triazolo[4,3-a]pyrazin-7-yl)-thieno[2,3-d]pyrimidin-2-yl]-pyrrolidin-3-one oxime] returned a Ki in experiment [1] of 28 nM. Further, the IC50 at Human P2Y12 receptor (setting [2]) came to 70 nM.
In the case of `CCCc1cc2c(N3CCn4c(nnc4C(F)(F)F)C3)nc(N3CC(=NOC)C(N)C3)nc2s1` (stereo not shown) [Example 1-117, 4-Amino-1-[6-propyl-4-(3-trifluoromethyl-5,6-dihydro-8H-[1,2,4]triazolo[4,3-a]pyrazin-7-yl)-thieno[2,3-d]pyrimidin-2-yl]-pyrrolidin-3-one O-methyl-oxime], in experiment [1], the Ki is 42 nM. Further, on Human P2Y12 receptor (setting [2]), the IC50 turned out to be 220 nM.
The matching figures for `CCCc1cc2c(N3CCn4c(nnc4C(F)(F)F)C3)nc(N3CC[C@H](NC(=O)Cc4c[nH]cn4)C3)nc2s1` [Example 1-120, 2-(1H-Imidazol-4-yl)-N-{(S)-1-[6-propyl-4-(3-trifluoromethyl-5,6-dihydro-8H-[1,2,4]triazolo[4,3-a]pyrazin-7-yl)-thieno[2,3-d]pyrimidin-2-yl]-pyrrolidin-3-yl}-acetamide]: 16 nM and 38 nM.
Turning to `CCCc1cc2c(N3CCn4c(nnc4C(F)(F)F)C3)nc(NCCOCC)nc2s1` [Example 1-122, (2-Ethoxy-ethyl)-[6-propyl-4-(3-trifluoromethyl-5,6-dihydro-8H-[1,2,4]triazolo[4,3-a]pyrazin-7-yl)-thieno[2,3-d]pyrimidin-2-yl]-amine], in experiment [1], the affinity, expressed as Ki, was 467 nM. The half-inhibitory concentration (IC50) on Human P2Y12 receptor (setting [2]) amounted to 220 nM.
Take `CCCc1cc2c(N3CCn4c(nnc4C(F)(F)F)C3)nc(NCCOCCO)nc2s1` [Example 1-123, 2-{2-[6-Propyl-4-(3-trifluoromethyl-5,6-dihydro-8H-[1,2,4]triazolo[4,3-a]pyrazin-7-yl)-thieno[2,3-d]pyrimidin-2-ylamino]-ethoxy}-ethanol]: the affinity in experiment [1], expressed as Ki, was 367 nM. Further, the 50% inhibitory concentration (IC50) on Human P2Y12 receptor (setting [2]) came out at 260 nM.
